Measured values from ChEMBL document CHEMBL1201862, “PubChem BioAssay data set” (2004).
Activity calls are given as the source filed them.

Experiments:
[1] = target: T1, Sentrin-specific protease 7 (Homo sapiens, UniProt Q9BQF6); assay: inhibition of human SENP7 cleavage activity – biochemical, luminescence, set 2, SAR follow-up (AID 588600); assay type: functional
T1 sequence (Q9BQF6 whole entry): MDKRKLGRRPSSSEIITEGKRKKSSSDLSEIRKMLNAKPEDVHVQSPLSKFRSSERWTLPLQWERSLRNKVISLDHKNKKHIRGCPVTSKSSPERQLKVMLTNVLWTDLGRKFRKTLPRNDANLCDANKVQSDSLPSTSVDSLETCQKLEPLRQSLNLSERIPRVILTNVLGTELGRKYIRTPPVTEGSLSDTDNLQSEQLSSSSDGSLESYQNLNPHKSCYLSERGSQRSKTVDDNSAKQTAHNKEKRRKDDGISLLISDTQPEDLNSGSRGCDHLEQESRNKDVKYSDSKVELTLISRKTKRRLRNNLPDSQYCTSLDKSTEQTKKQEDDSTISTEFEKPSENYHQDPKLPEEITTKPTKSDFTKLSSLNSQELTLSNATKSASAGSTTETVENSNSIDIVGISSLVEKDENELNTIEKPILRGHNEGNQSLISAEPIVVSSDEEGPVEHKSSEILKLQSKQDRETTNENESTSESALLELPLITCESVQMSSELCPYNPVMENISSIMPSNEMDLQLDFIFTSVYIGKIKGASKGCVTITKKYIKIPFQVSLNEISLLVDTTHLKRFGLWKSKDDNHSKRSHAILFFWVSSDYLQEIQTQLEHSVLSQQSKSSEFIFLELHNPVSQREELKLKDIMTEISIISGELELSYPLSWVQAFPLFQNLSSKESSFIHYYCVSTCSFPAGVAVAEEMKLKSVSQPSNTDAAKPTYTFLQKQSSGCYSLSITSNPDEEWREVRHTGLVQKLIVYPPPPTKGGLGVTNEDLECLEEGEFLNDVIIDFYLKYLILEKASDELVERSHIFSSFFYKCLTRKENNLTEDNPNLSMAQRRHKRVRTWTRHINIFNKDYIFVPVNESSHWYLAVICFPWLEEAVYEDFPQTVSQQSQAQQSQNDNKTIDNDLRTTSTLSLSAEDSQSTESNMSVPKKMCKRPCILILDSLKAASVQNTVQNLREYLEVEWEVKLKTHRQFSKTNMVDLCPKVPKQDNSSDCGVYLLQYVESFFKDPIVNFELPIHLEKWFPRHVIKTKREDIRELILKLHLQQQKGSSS

[2] = target: T2, Sentrin-specific protease 8 (Homo sapiens, UniProt Q96LD8); assay: inhibition of human SENP8 cleavage activity – biochemical, luminescence, SAR follow-up (AID 504501); assay type: functional
T2 sequence (Q96LD8 whole entry): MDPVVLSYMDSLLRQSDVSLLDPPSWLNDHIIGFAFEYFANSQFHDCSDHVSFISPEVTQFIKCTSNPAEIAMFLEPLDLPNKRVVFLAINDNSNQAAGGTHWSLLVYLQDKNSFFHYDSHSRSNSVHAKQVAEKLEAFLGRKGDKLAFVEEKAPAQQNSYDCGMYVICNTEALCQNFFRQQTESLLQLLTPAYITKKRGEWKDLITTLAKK

[3] = target: T1, Sentrin-specific protease 7; assay: inhibition of human SENP7 cleavage activity – biochemical, luminescence, SAR follow-up (AID 504497); assay type: functional
[4] = target: T2, Sentrin-specific protease 8; assay: inhibition of sentrin protease 8 – biochemical, luminescence, set 2, SAR follow-up (AID 588601); assay type: functional
[5] = target: T3, Sentrin-specific protease 6 (Homo sapiens, UniProt Q9GZR1); assay: inhibition of human SENP6 catalytic domain – biochemical, luminescence, set 2, SAR follow-up (AID 588598); assay type: functional
T3 sequence (Q9GZR1 whole entry): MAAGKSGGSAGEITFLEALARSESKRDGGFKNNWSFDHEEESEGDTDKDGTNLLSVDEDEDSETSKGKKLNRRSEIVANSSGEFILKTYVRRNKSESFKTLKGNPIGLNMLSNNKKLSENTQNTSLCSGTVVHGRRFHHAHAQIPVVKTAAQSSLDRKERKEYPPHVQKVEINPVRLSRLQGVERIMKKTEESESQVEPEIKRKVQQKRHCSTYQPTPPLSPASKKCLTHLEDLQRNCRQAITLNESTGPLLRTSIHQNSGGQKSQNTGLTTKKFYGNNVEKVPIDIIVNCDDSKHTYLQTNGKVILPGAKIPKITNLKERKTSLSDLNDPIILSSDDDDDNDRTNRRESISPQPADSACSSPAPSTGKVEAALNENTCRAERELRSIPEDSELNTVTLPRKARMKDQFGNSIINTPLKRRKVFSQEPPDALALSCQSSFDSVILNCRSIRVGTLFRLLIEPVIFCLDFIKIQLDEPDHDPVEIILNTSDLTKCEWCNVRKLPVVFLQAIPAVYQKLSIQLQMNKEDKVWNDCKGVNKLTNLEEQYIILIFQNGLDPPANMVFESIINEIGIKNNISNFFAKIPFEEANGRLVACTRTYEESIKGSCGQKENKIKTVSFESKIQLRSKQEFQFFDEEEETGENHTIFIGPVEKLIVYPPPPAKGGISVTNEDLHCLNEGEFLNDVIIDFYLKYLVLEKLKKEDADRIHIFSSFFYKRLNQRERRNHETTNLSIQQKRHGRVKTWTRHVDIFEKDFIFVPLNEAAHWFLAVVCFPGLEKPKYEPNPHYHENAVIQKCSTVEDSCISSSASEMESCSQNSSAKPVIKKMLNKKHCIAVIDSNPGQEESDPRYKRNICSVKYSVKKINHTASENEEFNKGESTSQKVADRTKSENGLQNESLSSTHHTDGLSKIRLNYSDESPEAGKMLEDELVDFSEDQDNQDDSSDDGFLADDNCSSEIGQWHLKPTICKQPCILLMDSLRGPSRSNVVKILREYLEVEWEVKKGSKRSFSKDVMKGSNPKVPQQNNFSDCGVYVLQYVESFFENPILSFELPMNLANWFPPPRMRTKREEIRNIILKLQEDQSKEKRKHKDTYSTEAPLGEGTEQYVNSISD

[6] = target: T3, Sentrin-specific protease 6; assay: SAR Analysis of small molecule inhibitors of Sentrin-specific protease 6 (SENP6) using a Luminescent assay. [Related pubchem assays (depositor defined):AID2582, AID2599]; assay type: functional
[7] = target: T4, Caspase-3 (Homo sapiens, UniProt P42574); assay: SAR Analysis of small molecule inhibitors of Sentrin-specific proteases (SENPs) using a Caspase-3 Selectivity assay. [Related pubchem assays (depositor defined):AID2540, AID2599, AID434973, AID489001]; assay type: functional
T4 sequence (P42574 whole entry): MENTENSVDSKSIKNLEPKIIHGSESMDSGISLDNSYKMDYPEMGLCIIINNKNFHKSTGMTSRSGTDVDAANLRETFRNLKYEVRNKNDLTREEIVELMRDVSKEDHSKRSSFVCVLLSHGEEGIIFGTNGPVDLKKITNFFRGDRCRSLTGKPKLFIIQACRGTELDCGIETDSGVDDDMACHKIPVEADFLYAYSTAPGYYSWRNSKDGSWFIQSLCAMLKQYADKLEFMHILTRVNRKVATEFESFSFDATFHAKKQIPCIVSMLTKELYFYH

[8] = test system: Vero; assay: viability of Vero cells under compound – cytotoxicity control for flavivirus capping enzyme inhibitors (AID 588742); assay type: functional; conditions: Chlorocebus sabaeus
[9] = target: Genome polyprotein (dengue virus type 2, UniProt P29990); assay: flavivirus cap methylation enzyme inhibition – biochemical, confirmation dose response, primary screen (AID 588689); assay type: functional
Genome polyprotein, sequence (P29990 2492-3391 limits assumed): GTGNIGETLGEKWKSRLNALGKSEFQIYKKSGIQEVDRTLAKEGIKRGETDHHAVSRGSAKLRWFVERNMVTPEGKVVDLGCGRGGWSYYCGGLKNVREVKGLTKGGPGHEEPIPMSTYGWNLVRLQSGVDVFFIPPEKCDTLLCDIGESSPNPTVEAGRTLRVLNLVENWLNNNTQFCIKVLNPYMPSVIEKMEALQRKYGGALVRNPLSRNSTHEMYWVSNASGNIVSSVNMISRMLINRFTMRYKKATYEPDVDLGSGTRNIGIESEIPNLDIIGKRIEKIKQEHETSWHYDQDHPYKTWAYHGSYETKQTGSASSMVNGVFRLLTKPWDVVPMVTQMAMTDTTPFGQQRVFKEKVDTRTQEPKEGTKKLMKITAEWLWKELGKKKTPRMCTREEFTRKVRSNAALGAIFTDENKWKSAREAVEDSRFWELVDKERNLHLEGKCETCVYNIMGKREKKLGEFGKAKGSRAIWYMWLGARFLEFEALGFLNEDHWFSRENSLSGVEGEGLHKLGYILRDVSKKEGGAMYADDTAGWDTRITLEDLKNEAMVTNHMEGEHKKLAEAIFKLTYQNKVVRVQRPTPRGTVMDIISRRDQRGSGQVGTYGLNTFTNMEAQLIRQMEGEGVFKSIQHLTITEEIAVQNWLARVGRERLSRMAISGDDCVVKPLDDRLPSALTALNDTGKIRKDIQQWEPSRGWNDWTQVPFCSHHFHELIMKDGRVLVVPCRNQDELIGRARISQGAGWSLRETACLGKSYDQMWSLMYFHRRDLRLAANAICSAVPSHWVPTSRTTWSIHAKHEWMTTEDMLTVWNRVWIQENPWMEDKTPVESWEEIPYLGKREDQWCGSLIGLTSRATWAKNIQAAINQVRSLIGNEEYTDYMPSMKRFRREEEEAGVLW

[10] = target: T5, Long-chain-fatty-acid--AMP ligase FadD28 (Mycobacterium tuberculosis, UniProt P9WQ59); assay: Fluorescence polarization aasay to screen for inhibitors that compete for the binding of FadD28 to a bisubstrate Measured in Biochemical System Using Plate Reader - 2147-01_Inhibitor_Dose_CherryPick_Activity.; assay type: functional, Mycobacterium tuberculosis H37Rv
T5 sequence (P9WQ59 whole entry): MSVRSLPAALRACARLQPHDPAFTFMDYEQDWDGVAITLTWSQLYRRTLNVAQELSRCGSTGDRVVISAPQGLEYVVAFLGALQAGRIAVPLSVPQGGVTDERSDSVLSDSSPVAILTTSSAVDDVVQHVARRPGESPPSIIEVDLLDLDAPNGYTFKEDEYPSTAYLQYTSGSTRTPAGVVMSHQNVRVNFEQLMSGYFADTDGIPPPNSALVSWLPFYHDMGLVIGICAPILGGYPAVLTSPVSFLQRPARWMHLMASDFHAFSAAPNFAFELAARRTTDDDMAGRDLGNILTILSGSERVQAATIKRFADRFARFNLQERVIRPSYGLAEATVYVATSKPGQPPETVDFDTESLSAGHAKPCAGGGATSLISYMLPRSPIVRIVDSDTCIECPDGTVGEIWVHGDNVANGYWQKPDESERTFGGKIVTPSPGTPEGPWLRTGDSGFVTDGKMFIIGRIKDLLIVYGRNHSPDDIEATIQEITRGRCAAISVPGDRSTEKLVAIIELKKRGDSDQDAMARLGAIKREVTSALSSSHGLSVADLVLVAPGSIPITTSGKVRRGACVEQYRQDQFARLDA

[11] = target: T6, Protein skinhead-1 (Caenorhabditis elegans, UniProt P34707); assay type: functional
T6 sequence (P34707 whole entry): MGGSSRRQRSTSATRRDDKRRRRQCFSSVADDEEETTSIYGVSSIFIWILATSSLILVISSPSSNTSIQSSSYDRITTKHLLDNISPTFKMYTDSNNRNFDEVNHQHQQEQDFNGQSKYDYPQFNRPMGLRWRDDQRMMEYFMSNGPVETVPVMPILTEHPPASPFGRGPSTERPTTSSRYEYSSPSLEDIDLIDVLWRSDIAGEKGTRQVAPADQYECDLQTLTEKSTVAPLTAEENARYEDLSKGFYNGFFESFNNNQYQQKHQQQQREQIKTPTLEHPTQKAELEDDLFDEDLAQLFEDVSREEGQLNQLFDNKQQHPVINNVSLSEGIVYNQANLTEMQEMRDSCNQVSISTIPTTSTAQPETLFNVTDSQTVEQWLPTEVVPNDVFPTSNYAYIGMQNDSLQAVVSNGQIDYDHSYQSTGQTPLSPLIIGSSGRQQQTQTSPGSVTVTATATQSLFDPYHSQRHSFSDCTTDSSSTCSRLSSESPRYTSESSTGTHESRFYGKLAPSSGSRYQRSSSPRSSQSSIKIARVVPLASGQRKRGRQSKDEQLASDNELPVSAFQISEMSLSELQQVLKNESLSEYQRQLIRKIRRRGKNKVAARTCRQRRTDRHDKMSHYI

[12] = target: T7, Type-1 angiotensin II receptor (Homo sapiens, UniProt P30556); assay: antagonism of angiotensin II type 1 receptor – cell-based, uHTS hits, selectivity assay for APJ receptor antagonist project, dose response (AID 463214); assay type: functional;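 further: antagonist potency against angiotensin II stimulated AT1 response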
T7 sequence (P30556 whole entry): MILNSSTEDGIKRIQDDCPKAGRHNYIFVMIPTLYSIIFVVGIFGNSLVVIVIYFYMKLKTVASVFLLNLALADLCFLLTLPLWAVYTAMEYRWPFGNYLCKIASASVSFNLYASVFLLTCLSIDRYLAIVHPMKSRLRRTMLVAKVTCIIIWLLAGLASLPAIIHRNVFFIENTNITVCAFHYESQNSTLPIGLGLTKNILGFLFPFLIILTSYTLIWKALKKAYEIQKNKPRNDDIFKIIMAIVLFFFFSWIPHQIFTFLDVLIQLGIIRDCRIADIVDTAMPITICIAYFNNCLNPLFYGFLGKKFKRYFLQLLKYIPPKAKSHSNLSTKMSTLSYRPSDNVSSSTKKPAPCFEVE

[13] = target: Beta-galactosidase (Escherichia coli, UniProt Q8VNN2); assay: PubChem AID 485352; assay type: functional
Beta-galactosidase, sequence (Q8VNN2 whole entry): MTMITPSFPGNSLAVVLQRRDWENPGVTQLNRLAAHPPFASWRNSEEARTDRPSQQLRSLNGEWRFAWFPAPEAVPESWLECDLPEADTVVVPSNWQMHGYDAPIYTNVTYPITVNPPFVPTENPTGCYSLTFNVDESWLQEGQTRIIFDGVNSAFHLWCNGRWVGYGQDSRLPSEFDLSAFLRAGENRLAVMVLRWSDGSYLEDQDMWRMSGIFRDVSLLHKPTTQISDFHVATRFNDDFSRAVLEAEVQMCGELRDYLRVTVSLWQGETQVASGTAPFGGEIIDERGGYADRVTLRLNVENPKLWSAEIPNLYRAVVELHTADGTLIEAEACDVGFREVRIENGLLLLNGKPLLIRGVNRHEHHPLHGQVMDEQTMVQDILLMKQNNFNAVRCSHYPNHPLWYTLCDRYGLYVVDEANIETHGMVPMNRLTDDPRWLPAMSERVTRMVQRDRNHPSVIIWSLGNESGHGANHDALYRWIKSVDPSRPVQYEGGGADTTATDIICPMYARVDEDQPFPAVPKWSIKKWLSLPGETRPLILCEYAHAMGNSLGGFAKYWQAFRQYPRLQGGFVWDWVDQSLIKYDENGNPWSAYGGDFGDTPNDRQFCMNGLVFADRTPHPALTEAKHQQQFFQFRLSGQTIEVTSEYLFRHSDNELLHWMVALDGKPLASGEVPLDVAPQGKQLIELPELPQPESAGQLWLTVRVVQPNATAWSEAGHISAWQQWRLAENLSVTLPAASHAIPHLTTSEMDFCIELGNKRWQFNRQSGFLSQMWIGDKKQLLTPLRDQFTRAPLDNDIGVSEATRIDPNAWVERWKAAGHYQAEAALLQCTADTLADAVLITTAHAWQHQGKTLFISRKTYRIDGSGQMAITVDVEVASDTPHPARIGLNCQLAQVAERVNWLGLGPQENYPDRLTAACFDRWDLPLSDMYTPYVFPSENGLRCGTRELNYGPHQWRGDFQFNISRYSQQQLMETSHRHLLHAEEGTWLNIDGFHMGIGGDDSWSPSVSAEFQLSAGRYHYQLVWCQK

[14] = DRD fibroblast viability loss – cell-based, non-viral oncogenic, luminescence, dose response (AID 1934); assay type: functional; conditions: Homo sapiens
[15] = test system: BJ; assay: BJ-TERT-LT-ST fibroblast viability loss – cell-based, RAS-independent, luminescence, dose response (AID 1935); assay type: functional; conditions: Homo sapiens;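 further: BJ fibroblasts immortalized with TERT plus LT and ST oncogenes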
[16] = test system: BJ; assay: BJ-TERT fibroblast viability loss – cell-based, RAS-independent, luminescence, dose response (AID 1933); assay type: functional; conditions: Homo sapiens
[17] = test system: BJ; assay: growth inhibition of engineered Ras-driven BJ cells – cell-based, alamar blue fluorescence, cherrypicked samples, dose response (AID 2631); assay type: functional; conditions: Homo sapiens;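 further: confirmatory dose-response assay in RAS-dependent BJ fibroblasts engineered with TERT, LT and ST, with cytotoxicity read by fluorescence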
[18] = test system: BJ; assay: cells; assay type: functional, cell-based; conditions: Homo sapiens, read-out: EC50
[19] = test system: H4; assay: Amyloid Precursor 5' UTR neuroblastoma cell reporter line Measured in Cell-Based System Using Plate Reader - 2078-04_Inhibitor_Dose_DryPowder_Activity. [Related pubchem assays (depositor defined):AID488894]; assay type: functional; conditions: Homo sapiens
[20] = target: Luciferin 4-monooxygenase (Photinus pyralis, UniProt P08659); assay: inhibition of purified Photinus pyralis luciferase – biochemical, dry powder samples, plate reader, dose response (AID 588451)
Luciferin 4-monooxygenase, sequence (P08659 whole entry): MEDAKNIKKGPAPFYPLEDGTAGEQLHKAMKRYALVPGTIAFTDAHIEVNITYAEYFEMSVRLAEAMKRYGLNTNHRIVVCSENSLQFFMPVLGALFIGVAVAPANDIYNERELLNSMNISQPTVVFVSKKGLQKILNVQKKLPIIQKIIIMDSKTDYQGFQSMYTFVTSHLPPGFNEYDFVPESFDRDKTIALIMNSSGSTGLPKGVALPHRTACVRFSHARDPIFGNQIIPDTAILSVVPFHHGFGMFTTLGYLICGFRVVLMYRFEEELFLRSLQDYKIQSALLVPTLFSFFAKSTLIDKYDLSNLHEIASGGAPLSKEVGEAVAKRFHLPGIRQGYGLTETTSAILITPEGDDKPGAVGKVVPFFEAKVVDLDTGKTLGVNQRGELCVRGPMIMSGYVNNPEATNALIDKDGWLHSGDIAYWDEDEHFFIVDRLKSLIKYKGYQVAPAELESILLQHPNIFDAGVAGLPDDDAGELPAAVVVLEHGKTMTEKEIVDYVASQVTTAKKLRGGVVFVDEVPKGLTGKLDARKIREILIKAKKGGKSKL

[21] = test system: H4; assay: inhibitors of control reporter signal in H4 cells – cell-based, plate reader, dry powder samples, counter-screen for prion reporter project, dose response (AID 540255); assay type: functional; conditions: Homo sapiens
[22] = test system: H4; assay: Inhibitors of Prion Protein 5' UTR mRNA Measured in Cell-Based System Using Plate Reader - 2078-01_Inhibitor_Dose_DryPowder_Activity. [Related pubchem assays (depositor defined):AID488894]; assay type: functional; conditions: Homo sapiens
[23] = HEK-293T cell viability reduction – luminescence, B-cell screen hits, cytotoxicity control for BCR NF-kB inhibitor project, dose response (AID 489021); assay type: functional, cell-based;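 further: HEK-293T cells carrying an NF-kB luciferase reporter; cells exposed to compound for about 14 hours before viability readout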

## Fc1ccc(/C=C/c2noc(-c3ccccc3I)n2)cc1
[1]
  IC50: 7.78 µM (active)
[2]
  IC50: 23 µM (active)
[3]
  IC50: 6.4 µM (active)
[4]
  IC50: 7.41 µM (active)
[5]
  IC50: 7.33 µM (active)
[6]
  IC50: 20 µM (active)
[7]
  IC50: 24 µM (active)

## O=C(Nc1sc2c(c1C(=O)O)CCCC2)c1cccc(Cl)c1
[8]
  CC50: > 40 µM (active)
[9]
  IC50: 71.8 µM (active)
[10]
  AC50: > 100 µM (inactive)

## O=C(CNc1ccc(Br)cc1)c1ccccc1
[11]
  IC50: > 100 µM (inactive)
[12]
  IC50: 13.5 µM (active)
[13]
  EC50: > 40 µM (inactive)

## Cc1ccc(/C=C2\SC(=S)N(CC3CCCO3)C2=O)o1 (stereo not drawn)
[14]
  EC50: 16.4 µM (active)
[15]
  EC50: > 150 µM (not active)
[16]
  EC50: 35.8 µM (inconclusive)
[17]
  EC50: > 133 µM (inactive)
[18]
  EC50: > 150 µM (not active)

## Cc1ccc(NC(=O)O/N=C/c2c(C)nn(C(C)(C)C)c2C)cc1Cl
[19]
  AC50: 0.125 µM (active)
[20]
  AC50: 14.8 µM (active)
[21]
  AC50: 0.237 µM (active)
[22]
  AC50: 0.099 µM (active)
[23]
  IC50: > 80 µM (inactive)
